Values quoted from earlier work in US20240173371A1, “RHODIOLA CRENULATA COMPOSITIONS AND METHODS OF MAKING THE SAME” (NutriScience Innovations LLC, priority 2022, published 2024).

Assays:
[1] = tested on: CD3+T cells and CD4+T helper cells; settings: Wistar male rats, supplementation
[2] = rats, oral, 20 and 40 mg/kg over two weeks
[3] = rats, oral, 20 and 40 mg/kg over two weeks; remark: listed apart in the source

OC[C@H]1O[C@@H](OCCc2ccc(O)cc2)[C@H](O)[C@@H](O)[C@@H]1O [salidroside]
CD4+T helper cells [1]: increased
total CD3+T cells [1]: increased
olfactory-bulbectomy-induced hyperactivity [2]: alleviated
outcome of a forced swim test [3]: improved
